Test results from article PMC12077208 (mBio, 2025).

What was measured:
[1] = molecular target: T1, NTF2L domain of G3BP1 (residues 1–138) (Homo sapiens, UniProt Q13283); test: Isothermal titration calorimetry (ITC) of peptides with NTF2L; type: binding; conditions: for n, molar ratio: 20°C
T1 construct: 6xHis tag with TEV protease cleavage site (N, cleaved yes); made in house; host or cells: Escherichia coli BL21 (DE3)

[2] = tested on: NTF2L domain of G3BP1; test: SEC-MALS of peptide–NTF2L complexes; type: physicochemical, human; conditions: ~2 mg/mL in PBS pH 7.4, Superdex 200 Increase 10/300 GL; for M.W., molecular weight of the peptide–NTF2L complex: 0.5 mL/min, value given in figure
[3] = tested on: lung cancer cell; conditions: through targeting G3BP1; cited from earlier work
[4] = tested on: SARS-CoV-2; conditions: cited from earlier work
[5] = tested on: endogenous G3BP1; test: Co-immunoprecipitation with endogenous G3BP1 in HEK293T cells; type: cell-based; conditions: Co-IP, Flag magnetic beads, HEK293T cells lysed 36 h after transfection (3xFlag-mCherry constructs)
Description: HEK293T cells were seeded into a six-well cell culture plate and then transfected with the recombinant plasmids using TransIntro PEI Transfection Reagent (TransGen Biotech, FT401-01). Thirty-six hours after transfection, the cells were lysed with cell lysis buffer (Beyotime, P0013J) supplemented with proteinase inhibitor phenylmethylsulfonyl fluoride (Solarbio, P8340). Cell lysates were then centrifuged, and the supernatants were immunoprecipitated with Flag magnetic beads (LABLEAD, PFM025). Beads were washed three times with washing buffer (50 mM Tris-HCl, 500 mM NaCl, 0.1% Triton X-100, 1 mM EDTA, pH 7.5). Cell lysates or immunoprecipitants were analyzed with immunoblotting.
The proteins were then transferred to polyvinylidene fluoride membranes. Membranes were blocked for 4 h with 5% non-fat dry milk solution in Tris-buffered saline containing 0.1% Tween-20 (TBST) and then incubated with primary antibodies mouse anti-G3BP1 (Santa Cruz, sc-365338), mouse anti-Flag (Proteintech, 66008-4-Ig), and rabbit anti-β-actin (Proteintech, 81115-1-RR) overnight at 4°C. The membranes were washed with TBST and then incubated with the corresponding secondary antibodies. Proteins were visualized by SuperKine West Femto Maximum Sensitivity Substrate according to the manufacturer’s instruction (Abbkine, BMU102).

[6] = tested on: NTF2L domain of G3BP1; test: Size-exclusion chromatography (SEC) of NTF2L incubated with peptide: high-order oligomer formation; type: binding, human; conditions: peptide mixed with NTF2L, incubated at 4°C overnight, Superdex 200 Increase 10/300 GL

T1 sequence (Q13283 1-138): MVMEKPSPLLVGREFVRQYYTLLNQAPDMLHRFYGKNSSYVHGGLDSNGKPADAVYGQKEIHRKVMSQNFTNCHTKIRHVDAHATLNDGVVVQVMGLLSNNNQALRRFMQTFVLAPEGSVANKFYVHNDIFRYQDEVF

**Q.** With CC[C@H](C)[C@H](NC(=O)[C@H](CCC(=O)O)NC(=O)CNC(=O)[C@H](CC(=O)O)NC(=O)[C@H](CC(N)=O)NC(=O)[C@H](Cc1ccccc1)NC(=O)[C@H](CC(=O)O)NC(=O)CNC(=O)[C@H](Cc1ccccc1)NC(=O)[C@@H](NC(=O)[C@@H](NC(=O)[C@@H]1CCCN1C(=O)[C@H](Cc1ccccc1)NC(=O)[C@@H](NC(=O)[C@H](CCC(=O)O)NC(=O)[C@H](CO)NC(=O)CNC(=O)[C@H](CC(C)C)NC(=O)[C@@H]1CCCN1C(=O)CN)[C@@H](C)O)[C@@H](C)CC)[C@@H](C)O)C(=O)N[C@@H](CCC(=O)O)C(=O)N[C@@H](CO)C(=O)N[C@@H](CC(C)C)C(=O)N[C@@H](CO)C(=O)N[C@@H](CO)C(=O)N[C@@H](CCC(=O)O)C(=O)N[C@@H](CC(C)C)C(=O)N[C@@H](CC(C)C)C(=O)N[C@H](C(=O)N[C@@H](Cc1ccccc1)C(=O)NCC(=O)N[C@@H](CC(=O)O)C(=O)N[C@@H](Cc1ccccc1)C(=O)N[C@@H](CC(C)C)C(=O)N1CCC[C@H]1C(=O)NCC(=O)N[C@@H](C)C(=O)N[C@H](C(=O)N[C@@H](C)C(=O)N[C@@H](CC(=O)O)C(=O)N[C@@H](CC(C)C)C(=O)N[C@H](C(=O)N[C@@H](CC(=O)O)C(=O)N[C@@H](CO)C(=O)N[C@@H](CC(=O)O)C(=O)N[C@@H](Cc1c[nH]c2ccccc12)C(=O)N[C@@H](CO)C(=O)N[C@H](C(=O)N[C@@H](Cc1c[nH]cn1)C(=O)N[C@@H](Cc1c[nH]cn1)C(=O)N[C@@H](Cc1c[nH]cn1)C(=O)N[C@@H](Cc1c[nH]cn1)C(=O)N[C@@H](Cc1c[nH]cn1)C(=O)N[C@@H](Cc1c[nH]cn1)C(=O)O)[C@@H](C)O)[C@@H](C)O)C(C)C)[C@@H](C)O [CHIKV-43 mut] as the compound, how does the “n, molar ratio” value ([1]; HEPES buffer pH 7.5, 200 µM peptide injected into 40 µM NTF2L) read?
**A.** 0.6 ± 0.02

**Q.** What about the “fold reduction of binding affinity with NTF2L” value ([1]; compared to that of CHIKV-43 with NTF2L) of the same compound?
**A.** ~ 15 fold

**Q.** And the “M.W., molecular weight of the peptide–NTF2L complex” value [2]?
**A.** 58.7 ± 0.42 kDa

**Q.** With O=C(O[C@@H]1Cc2c(O)cc(O)cc2O[C@@H]1c1cc(O)c(O)c(O)c1)c1cc(O)c(O)c(O)c1 [Epigallocatechin gallate] as the compound, how does the “effect on lung cancer cell growth” value [3] read?
**A.** inhibits lung cancer cell growth

**Q.** With Nc1ncn([C@H]2C[C@H](O)[C@@H](CO)O2)c(=O)n1 [decitabine] as the compound, how does the “inhibition of SARS-CoV-2 propagation” value [4] read?
**A.** inhibit SARS-CoV-2 propagation

**Q.** What does the source list for CC[C@H](C)[C@H](NC(=O)[C@H](CCC(=O)O)NC(=O)CNC(=O)[C@H](CC(=O)O)NC(=O)[C@H](CC(N)=O)NC(=O)[C@H](Cc1ccccc1)NC(=O)[C@H](CC(=O)O)NC(=O)CNC(=O)[C@H](Cc1ccccc1)NC(=O)[C@@H](NC(=O)[C@@H](NC(=O)[C@@H]1CCCN1C(=O)[C@H](Cc1ccccc1)NC(=O)[C@@H](NC(=O)[C@H](CCC(=O)O)NC(=O)[C@H](CO)NC(=O)CNC(=O)[C@H](CC(C)C)NC(=O)[C@@H]1CCCN1C(=O)CN)[C@@H](C)O)[C@@H](C)CC)[C@@H](C)O)C(=O)N[C@@H](CCC(=O)O)C(=O)N[C@@H](CO)C(=O)N[C@@H](CC(C)C)C(=O)N[C@@H](CO)C(=O)N[C@@H](CO)C(=O)N[C@@H](CCC(=O)O)C(=O)N[C@@H](CC(C)C)C(=O)N[C@@H](CC(C)C)C(=O)N[C@H](C(=O)N[C@@H](Cc1ccccc1)C(=O)NCC(=O)N[C@@H](CC(=O)O)C(=O)N[C@@H](Cc1ccccc1)C(=O)N[C@@H](CC(C)C)C(=O)N1CCC[C@H]1C(=O)NCC(=O)N[C@@H](CCC(=O)O)C(=O)N[C@H](C(=O)N[C@@H](CC(=O)O)C(=O)N[C@@H](CC(=O)O)C(=O)N[C@@H](CC(C)C)C(=O)N[C@H](C(=O)N[C@@H](CC(=O)O)C(=O)N[C@@H](CO)C(=O)N[C@@H](CC(=O)O)C(=O)N[C@@H](Cc1c[nH]c2ccccc12)C(=O)N[C@@H](CO)C(=O)N[C@H](C(=O)N[C@@H](Cc1c[nH]cn1)C(=O)N[C@@H](Cc1c[nH]cn1)C(=O)N[C@@H](Cc1c[nH]cn1)C(=O)N[C@@H](Cc1c[nH]cn1)C(=O)N[C@@H](Cc1c[nH]cn1)C(=O)N[C@@H](Cc1c[nH]cn1)C(=O)O)[C@@H](C)O)[C@@H](C)O)C(C)C)[C@@H](C)O [CHIKV-43]?
**A.** n, molar ratio ([1]; HEPES buffer pH 7.5, 50 µM peptide injected into 10 µM NTF2L): 0.6 ± 0.002; interaction with endogenous G3BP1 [5]: obviously interact with G3BP1; SEC peak / high-order oligomer formation with NTF2L [6]: formed a stable peak; M.W., molecular weight of the peptide–NTF2L complex [2]: 314.1 ± 0.28 kDa; approximate M.W. of the peptide–NTF2L complex ([2]; rounded value of text): approximately 310 kDa

**Q.** For Cc1ccc(NC(=O)c2ccc(CN3CCN(C)CC3)cc2)cc1Nc1nccc(-c2cccnc2)n1 [imatinib], which “inhibition of SARS-CoV-2 propagation” value [4] is on record?
**A.** inhibit SARS-CoV-2 propagation
